Measurements reported in patent US20140271766A1 (priority 2013, published 2014).
Where “and” joins values, the source holds several entries; their conditions need not be identical. Identical values can stand only once. Like-named read-outs stand apart in the source and are kept apart here. Marks after values point to notes of the source that are not given here.

Experiments:
[1] = human, in vivo
[2] = buprenorphine, individual patient
[3] = human, in vivo; remark: listed apart in the source

CO[C@@]12CC[C@@]3(C[C@@H]1[C@](C)(O)C(C)(C)C)[C@H]1Cc4ccc(O)c5c4[C@@]3(CCN1CC1CC1)[C@H]2O5 [buprenorphine]
Renal clearance [1]: 0.0552 mL/min
Model predicted concentration at removal ([2]; 2 implants): 263 pg/ml and 342 pg/ml (2×) and 252 pg/ml and 447 pg/ml and 338 pg/ml
Time from implant to reaching 2x last concentration ([2]; 2 implants): 180 h
α-Half Life ([2]; 2 implants): 115^b hours
β-Half Life ([2]; 2 implants): 3578^bc hours
γ-Half life ([2]; 2 implants): 120 weeks
Model predicted concentration at removal ([2]; 4 implants): 6.69 pg/mL and 5.33 pg/mL and 5.76 pg/mL and 5.01 pg/mL and 7.78 pg/mL
Time from implant to reaching 2x last concentration ([2]; 4 implants): 690 h and 710 h
β-Half Life ([2]; 4 implants): 12.0 h and 16.0 h and 24.0 h
Cave from Day 21 to removal, higher in higher dose group as compared with lower dose group [3]: 93%
Cmax, average, higher in higher dose group as compared with lower dose group [3]: 62%
reduction in buprenorphine concentrations from Day 17 to removal [3]: ≤ 50%
shortest half-life during the plateau phase [3]: 25 weeks
time to reach plateau phase of buprenorphine concentrations [3]: ≤ 21 days
